Assay results: US6368413B1, “Process for preparing improved sugar product” (Praxair Technology, Inc., priority 2000, dated 2002)

Test system: Aerobic Bacteria
Test: Disinfection of sugar liquor by ozonation, aerobic bacteria count
Description: In the laboratory, tests were performed on refinery liquors at Brix 66 to 70 and color between 60 and 300 Icumsa units (the color of sugar liquors is expressed in Icumsa units following the specific and standardized methodology well known in the sugar industry). A laboratory model generator was used to pass ozone into a batch reactor. The ozone generator was operating on a pure feed gas and it produced 40 g/h of ozone at 5% concentration. Two mixer reactors were used, the first one operating at 800 rpm under a pressure of 60 psig with 2L capacity and the second one operating at atmospheric pressure and 1200 rpm with 10 L capacity. A series of tests were carried out with different types of liquors and the treated sugar was characterized in terms of color, turbidity, pH, saccharose degradation, toxicity and disinfection. The following examples present results of experiments performed in different ozonation conditions with different types of liquors. A 184 Icumsa color units liquor was treated with 200 mg/L of ozone during 8 min using the pressurized reactor. A low color liquor, 64 Icumsa units was treated in the atmospheric pressure reactor under two different ozonation conditions. The following table presents the results of microbiological analyses.

## O=[O+][O-] [ozone]
Example 6: 200 mg/L ozone, 8 min
  reduction of number of total bacteria after ozonation: 95%
Example 7: 200 mg/l ozone
  reduction of bacteria: 89%
Example 7: 400 mg/L of ozone
  disinfection: complete disinfection
